Values quoted from earlier work in patent US20200138845A1, “Combination Drug Therapy” (ViiV Healthcare Company, priority 2017, published 2020).

Test system: HIV-1 strains
Details: antiviral activity against a broad range of HIV-1 strains

C[C@H]1CO[C@@H]2Cn3cc(C(=O)NCc4ccc(F)cc4F)c(=O)c(O)c3C(=O)N12 [Cabotegravir, cabotegravir]
potency: subnanomolar
